This note sets out measurements from publication PMC4774911, “Biochemical Screening of Five Protein Kinases from Plasmodium falciparum against 14,000 Cell-Active Compounds” (PLoS ONE, 2016).

pIC50: −log10 of the molar value. “And” between values parts separate entries of the source, which are not always exact repeats. Identical values can stand only once.

Targets include MAP4K5 (Homo sapiens, UniProt Q9Y4K4); MAP3K4 (Homo sapiens, UniProt Q9Y6R4); PIK3R4 (Homo sapiens, UniProt Q99570); CAMK2D (Homo sapiens, UniProt Q13557); MAPK14 (Homo sapiens, UniProt Q16539); MAPK8 (Homo sapiens, UniProt P45983); MAP3K1 (Homo sapiens, UniProt Q13233).
Common to all, as to assay: biochemical
In the next assay the target is T1, NEK1 (Homo sapiens, UniProt Q96PY6).
T1 sequence (Q96PY6 1-1258): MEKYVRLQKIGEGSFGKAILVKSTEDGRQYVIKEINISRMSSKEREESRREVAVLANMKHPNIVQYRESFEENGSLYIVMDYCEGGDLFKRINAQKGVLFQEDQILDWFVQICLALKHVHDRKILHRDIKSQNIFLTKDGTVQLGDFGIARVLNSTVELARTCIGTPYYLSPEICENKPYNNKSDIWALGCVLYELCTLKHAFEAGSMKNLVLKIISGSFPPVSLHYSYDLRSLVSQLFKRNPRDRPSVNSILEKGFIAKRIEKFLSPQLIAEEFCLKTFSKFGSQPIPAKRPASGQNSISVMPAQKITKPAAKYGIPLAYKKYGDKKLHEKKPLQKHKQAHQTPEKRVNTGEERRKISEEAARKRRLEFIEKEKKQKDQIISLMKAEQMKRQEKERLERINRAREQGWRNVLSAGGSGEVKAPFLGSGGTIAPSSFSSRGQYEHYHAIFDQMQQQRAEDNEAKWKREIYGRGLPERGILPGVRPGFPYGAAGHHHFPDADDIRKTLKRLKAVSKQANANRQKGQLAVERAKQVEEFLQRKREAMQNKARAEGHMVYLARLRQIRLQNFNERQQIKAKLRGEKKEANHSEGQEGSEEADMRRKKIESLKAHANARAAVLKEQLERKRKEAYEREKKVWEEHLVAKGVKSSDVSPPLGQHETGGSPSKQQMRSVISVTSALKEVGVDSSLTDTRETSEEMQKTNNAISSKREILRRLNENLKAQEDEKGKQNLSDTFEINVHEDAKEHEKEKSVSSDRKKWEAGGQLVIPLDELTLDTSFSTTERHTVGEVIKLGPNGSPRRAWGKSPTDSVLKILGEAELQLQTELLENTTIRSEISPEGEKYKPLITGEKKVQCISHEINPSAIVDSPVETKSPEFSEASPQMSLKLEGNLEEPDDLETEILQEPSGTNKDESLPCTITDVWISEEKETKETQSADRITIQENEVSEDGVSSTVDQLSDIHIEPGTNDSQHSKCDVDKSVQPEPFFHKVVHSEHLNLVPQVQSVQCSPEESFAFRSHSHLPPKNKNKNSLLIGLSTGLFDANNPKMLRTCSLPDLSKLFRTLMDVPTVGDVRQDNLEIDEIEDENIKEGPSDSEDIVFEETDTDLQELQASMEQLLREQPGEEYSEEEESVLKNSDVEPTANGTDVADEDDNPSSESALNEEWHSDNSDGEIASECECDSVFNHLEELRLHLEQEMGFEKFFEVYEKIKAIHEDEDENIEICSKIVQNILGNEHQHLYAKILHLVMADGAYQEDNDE

A further assay addresses T2, MAP2K4 (Homo sapiens, UniProt P45985).
T2 sequence (P45985 1-399): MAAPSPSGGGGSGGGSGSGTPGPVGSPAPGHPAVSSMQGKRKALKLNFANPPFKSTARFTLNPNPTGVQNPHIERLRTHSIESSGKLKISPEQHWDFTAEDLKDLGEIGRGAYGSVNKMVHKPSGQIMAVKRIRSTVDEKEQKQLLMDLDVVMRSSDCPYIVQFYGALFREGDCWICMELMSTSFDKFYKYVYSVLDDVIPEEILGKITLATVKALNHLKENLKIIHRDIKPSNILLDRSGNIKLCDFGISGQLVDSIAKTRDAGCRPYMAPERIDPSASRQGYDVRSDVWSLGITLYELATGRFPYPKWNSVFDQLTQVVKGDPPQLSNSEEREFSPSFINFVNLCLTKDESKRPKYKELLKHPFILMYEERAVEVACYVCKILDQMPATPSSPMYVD

In the next assay the target is T3, MAP2K5 (Homo sapiens, UniProt Q13163).
T3 sequence (Q13163 1-448): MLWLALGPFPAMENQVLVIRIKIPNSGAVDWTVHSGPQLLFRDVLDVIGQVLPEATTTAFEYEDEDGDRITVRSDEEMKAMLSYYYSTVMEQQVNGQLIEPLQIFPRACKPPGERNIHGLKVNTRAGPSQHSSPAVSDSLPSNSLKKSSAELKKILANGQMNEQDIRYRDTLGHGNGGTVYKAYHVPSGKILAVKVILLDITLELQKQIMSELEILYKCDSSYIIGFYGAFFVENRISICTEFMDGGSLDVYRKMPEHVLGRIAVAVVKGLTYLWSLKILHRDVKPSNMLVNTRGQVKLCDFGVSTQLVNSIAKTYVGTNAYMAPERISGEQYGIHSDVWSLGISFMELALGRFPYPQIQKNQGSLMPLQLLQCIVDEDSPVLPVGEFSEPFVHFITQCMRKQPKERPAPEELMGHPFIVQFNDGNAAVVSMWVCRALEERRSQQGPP

Chain of PIK3R4 (Q99570 whole entry): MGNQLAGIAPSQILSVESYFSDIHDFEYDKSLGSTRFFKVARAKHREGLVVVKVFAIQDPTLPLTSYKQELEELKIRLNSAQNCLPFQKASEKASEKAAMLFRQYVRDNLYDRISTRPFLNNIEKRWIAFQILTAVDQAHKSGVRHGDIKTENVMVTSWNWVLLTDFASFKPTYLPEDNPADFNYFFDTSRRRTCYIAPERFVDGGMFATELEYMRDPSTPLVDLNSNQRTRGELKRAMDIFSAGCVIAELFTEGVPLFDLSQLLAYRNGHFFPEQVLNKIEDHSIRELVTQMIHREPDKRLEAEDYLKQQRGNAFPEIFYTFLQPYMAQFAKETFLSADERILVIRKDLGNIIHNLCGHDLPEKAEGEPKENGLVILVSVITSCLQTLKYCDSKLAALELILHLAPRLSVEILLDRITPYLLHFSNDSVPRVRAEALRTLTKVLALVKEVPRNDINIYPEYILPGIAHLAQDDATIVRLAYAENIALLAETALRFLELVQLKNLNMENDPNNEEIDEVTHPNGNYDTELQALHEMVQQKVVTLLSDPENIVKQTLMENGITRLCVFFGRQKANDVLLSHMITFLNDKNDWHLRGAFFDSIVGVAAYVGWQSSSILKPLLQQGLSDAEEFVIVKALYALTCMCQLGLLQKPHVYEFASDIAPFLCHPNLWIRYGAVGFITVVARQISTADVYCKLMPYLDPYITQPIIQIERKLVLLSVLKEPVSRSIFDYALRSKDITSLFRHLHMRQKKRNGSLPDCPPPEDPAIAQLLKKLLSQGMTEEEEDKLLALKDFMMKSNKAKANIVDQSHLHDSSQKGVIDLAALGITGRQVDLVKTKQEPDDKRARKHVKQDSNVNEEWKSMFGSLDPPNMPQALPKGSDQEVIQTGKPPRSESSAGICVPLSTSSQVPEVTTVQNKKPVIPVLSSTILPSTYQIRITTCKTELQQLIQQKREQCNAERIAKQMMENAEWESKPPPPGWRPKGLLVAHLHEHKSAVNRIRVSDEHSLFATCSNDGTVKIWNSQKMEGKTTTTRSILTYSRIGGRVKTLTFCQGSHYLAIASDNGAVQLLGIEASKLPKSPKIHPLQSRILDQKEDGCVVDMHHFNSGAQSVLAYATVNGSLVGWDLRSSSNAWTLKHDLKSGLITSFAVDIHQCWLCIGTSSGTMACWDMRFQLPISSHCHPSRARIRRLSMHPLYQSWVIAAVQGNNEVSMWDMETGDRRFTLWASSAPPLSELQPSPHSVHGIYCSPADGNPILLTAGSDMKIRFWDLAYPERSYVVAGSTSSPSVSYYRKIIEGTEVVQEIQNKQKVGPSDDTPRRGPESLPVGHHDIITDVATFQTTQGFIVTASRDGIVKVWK
Chain of MAP4K5 (Q9Y4K4 whole entry): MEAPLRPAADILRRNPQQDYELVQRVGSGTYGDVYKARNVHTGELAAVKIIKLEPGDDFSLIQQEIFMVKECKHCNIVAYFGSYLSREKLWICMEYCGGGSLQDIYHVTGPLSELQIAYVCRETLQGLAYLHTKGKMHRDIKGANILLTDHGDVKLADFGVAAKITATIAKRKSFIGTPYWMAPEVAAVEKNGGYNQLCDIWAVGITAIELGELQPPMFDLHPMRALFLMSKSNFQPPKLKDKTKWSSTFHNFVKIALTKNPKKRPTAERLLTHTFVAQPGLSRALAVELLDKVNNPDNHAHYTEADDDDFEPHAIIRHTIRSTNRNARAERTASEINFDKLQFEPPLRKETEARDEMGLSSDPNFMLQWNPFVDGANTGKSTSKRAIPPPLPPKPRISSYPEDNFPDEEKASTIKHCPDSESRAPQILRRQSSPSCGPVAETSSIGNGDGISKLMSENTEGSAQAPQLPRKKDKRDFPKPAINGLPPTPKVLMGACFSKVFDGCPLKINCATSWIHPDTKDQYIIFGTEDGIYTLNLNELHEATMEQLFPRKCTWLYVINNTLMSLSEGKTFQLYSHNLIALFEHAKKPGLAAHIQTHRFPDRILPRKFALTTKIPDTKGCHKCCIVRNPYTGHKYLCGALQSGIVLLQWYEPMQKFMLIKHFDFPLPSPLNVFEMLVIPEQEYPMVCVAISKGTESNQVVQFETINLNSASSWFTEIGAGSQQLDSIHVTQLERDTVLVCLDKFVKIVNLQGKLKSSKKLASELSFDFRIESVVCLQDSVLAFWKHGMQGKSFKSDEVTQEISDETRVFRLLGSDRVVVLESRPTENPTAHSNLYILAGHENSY
Chain of MAPK14 (Q16539 whole entry): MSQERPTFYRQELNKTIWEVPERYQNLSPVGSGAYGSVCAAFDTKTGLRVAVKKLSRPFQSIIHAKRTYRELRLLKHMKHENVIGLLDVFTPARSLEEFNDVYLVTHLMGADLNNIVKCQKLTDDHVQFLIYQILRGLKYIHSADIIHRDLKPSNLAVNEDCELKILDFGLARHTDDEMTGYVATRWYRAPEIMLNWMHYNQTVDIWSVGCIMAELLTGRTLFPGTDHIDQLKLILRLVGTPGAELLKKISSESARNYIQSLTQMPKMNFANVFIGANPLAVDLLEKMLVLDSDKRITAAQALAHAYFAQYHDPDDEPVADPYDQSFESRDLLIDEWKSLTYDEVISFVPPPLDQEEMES
Chain of CAMK2D (Q13557 whole entry): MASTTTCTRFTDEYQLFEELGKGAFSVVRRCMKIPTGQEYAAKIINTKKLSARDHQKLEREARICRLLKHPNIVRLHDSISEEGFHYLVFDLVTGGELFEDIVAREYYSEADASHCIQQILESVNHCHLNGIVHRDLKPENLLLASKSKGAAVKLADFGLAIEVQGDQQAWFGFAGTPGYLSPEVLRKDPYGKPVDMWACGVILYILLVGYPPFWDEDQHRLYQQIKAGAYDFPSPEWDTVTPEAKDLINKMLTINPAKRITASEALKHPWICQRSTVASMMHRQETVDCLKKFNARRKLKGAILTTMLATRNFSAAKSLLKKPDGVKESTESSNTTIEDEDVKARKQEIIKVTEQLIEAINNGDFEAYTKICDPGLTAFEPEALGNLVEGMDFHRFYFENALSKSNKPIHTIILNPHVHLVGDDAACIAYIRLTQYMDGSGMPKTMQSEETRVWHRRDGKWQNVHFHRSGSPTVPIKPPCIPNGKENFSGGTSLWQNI
Chain of MAP3K1 (Q13233 whole entry): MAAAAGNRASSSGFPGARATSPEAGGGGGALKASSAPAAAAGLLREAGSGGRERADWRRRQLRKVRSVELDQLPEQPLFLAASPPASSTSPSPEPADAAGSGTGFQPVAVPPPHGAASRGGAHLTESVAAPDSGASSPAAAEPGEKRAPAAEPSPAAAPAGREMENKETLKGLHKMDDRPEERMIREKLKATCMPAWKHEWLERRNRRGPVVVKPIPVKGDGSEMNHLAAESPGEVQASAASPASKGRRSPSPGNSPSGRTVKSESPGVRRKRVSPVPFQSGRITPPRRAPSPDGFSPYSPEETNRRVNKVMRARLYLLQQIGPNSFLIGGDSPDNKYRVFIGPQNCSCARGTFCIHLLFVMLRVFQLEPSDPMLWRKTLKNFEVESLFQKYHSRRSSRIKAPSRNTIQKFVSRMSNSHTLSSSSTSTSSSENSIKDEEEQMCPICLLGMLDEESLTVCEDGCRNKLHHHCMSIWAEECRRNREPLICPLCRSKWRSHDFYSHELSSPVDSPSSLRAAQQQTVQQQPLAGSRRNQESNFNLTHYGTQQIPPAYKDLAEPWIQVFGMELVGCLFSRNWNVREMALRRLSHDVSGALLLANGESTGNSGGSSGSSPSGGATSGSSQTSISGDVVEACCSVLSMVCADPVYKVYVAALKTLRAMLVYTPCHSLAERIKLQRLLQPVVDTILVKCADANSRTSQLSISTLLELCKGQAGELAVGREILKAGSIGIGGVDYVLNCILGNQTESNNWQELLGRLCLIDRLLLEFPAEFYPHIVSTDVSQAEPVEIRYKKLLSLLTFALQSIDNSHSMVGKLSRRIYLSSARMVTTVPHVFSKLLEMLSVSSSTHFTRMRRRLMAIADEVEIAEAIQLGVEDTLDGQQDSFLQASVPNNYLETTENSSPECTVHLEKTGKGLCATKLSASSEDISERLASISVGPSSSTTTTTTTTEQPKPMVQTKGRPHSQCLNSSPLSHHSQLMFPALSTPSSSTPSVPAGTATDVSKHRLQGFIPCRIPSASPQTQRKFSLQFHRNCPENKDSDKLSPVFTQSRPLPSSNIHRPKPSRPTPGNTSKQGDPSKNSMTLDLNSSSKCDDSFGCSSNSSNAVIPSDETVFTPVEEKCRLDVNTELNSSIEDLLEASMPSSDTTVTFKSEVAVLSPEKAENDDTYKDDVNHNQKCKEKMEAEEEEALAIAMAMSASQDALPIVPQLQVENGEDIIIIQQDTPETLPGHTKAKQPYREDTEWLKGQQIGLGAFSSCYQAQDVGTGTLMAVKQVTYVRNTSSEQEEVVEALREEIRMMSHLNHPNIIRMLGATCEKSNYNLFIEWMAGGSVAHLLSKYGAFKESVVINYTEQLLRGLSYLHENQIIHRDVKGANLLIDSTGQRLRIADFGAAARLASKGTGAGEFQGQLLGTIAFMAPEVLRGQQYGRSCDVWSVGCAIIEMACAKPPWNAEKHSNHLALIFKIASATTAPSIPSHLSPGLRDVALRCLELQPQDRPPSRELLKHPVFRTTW
Chain of MAPK8 (P45983 whole entry): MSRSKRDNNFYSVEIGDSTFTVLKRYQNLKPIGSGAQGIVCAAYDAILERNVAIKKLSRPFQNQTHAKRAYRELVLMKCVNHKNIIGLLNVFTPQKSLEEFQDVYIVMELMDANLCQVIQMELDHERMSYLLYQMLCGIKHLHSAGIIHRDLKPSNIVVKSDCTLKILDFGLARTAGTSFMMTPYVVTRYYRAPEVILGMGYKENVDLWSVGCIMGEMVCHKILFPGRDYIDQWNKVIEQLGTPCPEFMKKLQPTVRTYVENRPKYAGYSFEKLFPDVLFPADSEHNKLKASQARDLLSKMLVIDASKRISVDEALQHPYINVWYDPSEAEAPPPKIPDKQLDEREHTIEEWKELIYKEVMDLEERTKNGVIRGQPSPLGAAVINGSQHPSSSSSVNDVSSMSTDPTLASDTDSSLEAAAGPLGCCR

As for `CN1CCN(c2ccc(Nc3ncc(C#N)c(Nc4ccccc4C(N)=O)n3)cc2)CC1.Cl` [TCMDC-134116], the negative logarithm of the IC50 (pIC50) (usually the negative decadic logarithm of the IC50, by convention in mol/L) at MAP4K5 was 6.55 and 6.54; at MAP3K4, 7.41 and 7.29; against PIK3R4, 5.66; against NEK1, 6.24 and 6.33; against CAMK2D it was 5.72 and 6.02; on MAP2K4, less than 4.70. In addition, the pIC50 on MAPK14 was less than 4.70; on MAPK8 it was 5.82 and 5.29; on MAP3K1, 5.80; at MAP2K5, 6.40 and 6.28.
Regarding `Cl.NCC1(c2nc(-c3ccc(Cl)c(O)c3)c(-c3ccncc3)[nH]2)CCCCC1` [TCMDC-141154], the pIC50 against MAP4K5 is 5.30; against MAP3K4 it was less than 4.70; against PIK3R4, less than 4.70; against NEK1 it was less than 4.70; at CAMK2D it was less than 4.70; against MAP2K4, less than 4.70. For the same compound, the pIC50 against MAPK14 is not below 7.49; on MAPK8, less than 4.70; against MAP3K1, less than 4.70; against MAP2K5, 6.06.
For the compound `CN(C)CC(O)COc1ccc(Nc2ncc([N+](=O)[O-])c(Nc3ccccc3O)n2)cc1.O=C(O)C(F)(F)F` (stereo not drawn) [TCMDC-141399], the pIC50 on MAP4K5 was 5.37; against MAP3K4, 6.08; against PIK3R4 it was less than 4.70; against NEK1 it was 5.19; against CAMK2D, less than 4.70; against MAP2K4, less than 4.70. Also, the pIC50 on MAPK14, against MAPK8, against MAP3K1 and against MAP2K5 was less than 4.70 in each case.
